From patent publication US8389472B2, “Exendin-4 to treat nonalcoholic steatohepatitis and nonalcoholic fatty liver disease” (Amylin Pharmaceuticals, LLC, priority 2005, dated 2013)
No end group written: not given here.

Tests used:
[1] = adsorption onto glass container in liquid form; type: physicochemical
Description: However, with regard to compounds Which do have such a tendency when in liquid final, a surfactant should be used in their formulation. These formulations may then be lyophilized. Surfactants frequently cause denaturation of protein, both of hydrophobic disruption and by salt bridge separation. Relatively low concentrations of surfactant may exert a potent denaturing activity, because of the strong interactions between surfactant moieties and the reactive sites on proteins. However, judicious use of this interaction can stabilize proteins against interfacial or surface denaturation. Surfactants which could further stabilize the peptide may optionally be present in the range of about 0.001 to 0.3% (w/v) of the total formulation and include polysorbate 80 (i.e., polyoxyethylene(20) sorbitan monooleate), CHAPS® (i.e., 3-[(3-Cholamidopropyl)dimethylammonio]propanesulfonic acid), BRIJ® (e.g., Brij 35, which is (polyoxyethylene(23) lauryl ether), poloxamer, or another non-ionic surfactant.

[2] = in treated test animals; cited from earlier work
[3] = compared to human amylin; cited from earlier work
cloned GLP-1 receptor = conditions: cells transfected with the cloned GLP-1 receptor; cited from earlier work
T2DM patients = conditions: head-to-head comparator trial; cited from earlier work

Molecule: CC[C@H](C)[C@H](NC(=O)[C@@H]1CCCN1C(=O)CNC(=O)[C@H](Cc1ccccc1)NC(=O)[C@H](CC(N)=O)NC(=O)[C@H](CC(N)=O)NC(=O)[C@H](CO)NC(=O)[C@H](CO)NC(=O)[C@H](Cc1c[nH]cn1)NC(=O)[C@@H](NC(=O)[C@H](CC(C)C)NC(=O)[C@H](Cc1ccccc1)NC(=O)[C@H](CC(N)=O)NC(=O)[C@H](C)NC(=O)[C@H](CC(C)C)NC(=O)[C@H](CCCNC(=N)N)NC(=O)[C@H](CCC(N)=O)NC(=O)[C@@H](NC(=O)[C@H](C)NC(=O)[C@@H]1CSSC[C@H](NC(=O)[C@@H](N)CCCCN)C(=O)N[C@@H](CC(N)=O)C(=O)N[C@@H]([C@@H](C)O)C(=O)N[C@@H](C)C(=O)N[C@@H]([C@@H](C)O)C(=O)N1)[C@@H](C)O)C(C)C)C(=O)N[C@@H](CC(C)C)C(=O)N1CCC[C@H]1C(=O)N1CCC[C@H]1C(=O)N[C@H](C(=O)N[C@@H](CC(N)=O)C(=O)N[C@H](C(=O)NCC(=O)N[C@@H](CO)C(=O)N[C@@H](CC(N)=O)C(=O)N[C@H](C(=O)N[C@@H](Cc1ccc(O)cc1)C(N)=O)[C@@H](C)O)C(C)C)[C@@H](C)O [^25,28,29Pro-h-amylin, reference compound]
- tendency to adsorb onto the glass [1]: does not have a tendency to adsorb onto the glass
- amylin activity [2]: amylin activity in vivo

Molecule: ^18Arg^25,28Pro-h-amylin (KCNTATCATQRLANFLVRSSNNFGPILPSTNVGSNTY) [amylin agonist analog]
- amylin activity [2]: amylin activity in vivo
- solubility and stability characteristics [3]: more desirable solubility and stability characteristics

Molecule: ^25Pro^26Val^28,29Pro-h-amylin (KCNTATCATQRLANFLVHSSNNFGPVLPPTNVGSNTY) [amylin agonist analog]
- solubility and stability characteristics [3]: more desirable solubility and stability characteristics

Molecule: ^28Pro-h-amylin (KCNTATCATQRLANFLVHSSNNFGAILPSTNVGSNTY) [amylin agonist analog]
- amylin activity [2]: amylin activity in vivo

Molecule: des-^1Lys-h-amylin (CNTATCATQRLANFLVHSSNNFGAILSSTNVGSNTY; ends and bridges not checked; cysteine pairing not given here; UniProt P10997 34-70, looked up, variant K1*) [amylin agonist analog]
- amylin activity [2]: amylin activity in vivo

Molecule: des-^1Lys^18Arg^25,28Pro-h-amylin
- amylin activity [2]: amylin activity in vivo

Molecule: exendin[9-39]
- functional activity (cAMP) (cloned GLP-1 receptor): antagonist

Molecule: insulin glargine
- HbA1c reductions (T2DM patients): ~1.1%
- weight gain (T2DM patients): ~1.8 kg
